Laboratory results published in patent publication US20260199323A1, “LIGAND COMPOUNDS FOR E3 UBIQUITIN LIGASE, PROTEIN DEGRADERS DEVELOPED ON BASIS OF LIGAND COMPOUNDS, AND USES THEREOF” (GLUETACS THERAPEUTICS (SHANGHAI) CO., LTD., priority 2021, published 2026).
Read-outs that look alike come from different tables or passages of the source. One block for each compound: values may come before it.

Columns and labels:
PC-9 = assay: CCK-8 tumor cell proliferation, PC-9; type: cell-based, Human; conditions: for IC50: Homo sapiens, PC-9, read-out: IC50 inhibiting proliferation of tumor cells, PC-9; for IC50 for inhibiting the proliferation of tumor cells, PC-9: Table 11, designed based on EGFR inhibitors, 96 h
Method: The tumor cells used herein were cultured in a cell culture medium listed in table 4 at 37° C. in an incubator with 5% CO2.
(§1) After 24 h, 100 μL of the inoculated cells were treated with 0.5 μL of the compounds of the present disclosure (including the compounds in Tables 1 and 3, and compounds of examples) at 10 different successively decreasing concentrations (starting at the highest concentration of 10 μM; 5-fold serial dilutions). After the cells were treated with the compounds of the present disclosure for a period of time, the cell viability detection reagent was added to the culture medium for cell viability assessment according to the instructions provided with the CCK-8 kit. […] The growth inhibition of the compounds of the present disclosure on cells was plotted by Prism Graphpad software, and the IC50 values of the compounds of the present disclosure were calculated therefrom.

SR = assay: CCK-8 tumor cell proliferation, SR; type: cell-based, Human; conditions: Homo sapiens, SR, read-out: IC50 inhibiting proliferation of tumor cells, SR
Method: (§2) The tumor cells used herein were cultured in a cell culture medium listed in table 4 at 37° C. in an incubator with 5% CO2. Prior to experimentation, all cells used were correctly identified by STR profiling, and tested negative for mycoplasma through routine screenings.
as §1, with “IC50 values of the compounds of the present disclosure (including the compounds in Tables 1 and 3, and compounds of examples) were measured using the Meilun Cell Counting Kit-8 kit from Dalian Meilun Biotech Co., Ltd. Assay details are as follows: tumor cells were seeded in a 96-well plate at a density listed in Table 5. After 24” for “After 24”

MDA-MB-231 = assay: CCK-8 tumor cell proliferation, MDA-MB-231; type: cell-based, Human; set-up: IC50 for inhibiting the proliferation of tumor cells, MDA-MB-231: scale not given here; conditions: for IC50: Homo sapiens, MDA-MB-231, read-out: IC50 inhibiting proliferation of tumor cells, MDA-MB-231
Method: as §2
as §1, with “IC50 values of the compounds of the present disclosure (including the compounds in Tables 1 and 3, and compounds of examples) were measured using the Meilun Cell Counting Kit-8 kit from Dalian Meilun Biotech Co., Ltd. Assay details are as follows: tumor cells were seeded in a 96-well plate at a density listed in Table 5. After 24” for “After 24”

SW620 = assay: CCK-8 tumor cell proliferation, SW620; type: cell-based, Human; conditions: Homo sapiens, SW-620
Method: as §2
as §1, with “IC50 values of the compounds of the present disclosure (including the compounds in Tables 1 and 3, and compounds of examples) were measured using the Meilun Cell Counting Kit-8 kit from Dalian Meilun Biotech Co., Ltd. Assay details are as follows: tumor cells were seeded in a 96-well plate at a density listed in Table 5. After 24” for “After 24”

Mino = assay: CCK-8 tumor cell proliferation, Mino; type: cell-based, Human
Method: as §2
as §1, with “IC50 values of the compounds of the present disclosure (including the compounds in Tables 1 and 3, and compounds of examples) were measured using the Meilun Cell Counting Kit-8 kit from Dalian Meilun Biotech Co., Ltd. Assay details are as follows: tumor cells were seeded in a 96-well plate at a density listed in Table 5. After 24” for “After 24”

CCRF-CEM = assay: CCK-8 tumor cell proliferation, CCRF-CEM; type: cell-based, Human; set-up: IC50 for inhibiting the proliferation of tumor cells, CCRF-CEM: scale not given here; conditions: 96 h
Method: as §2
as §1, with “IC50 values of the compounds of the present disclosure (including the compounds in Tables 1 and 3, and compounds of examples) were measured using the Meilun Cell Counting Kit-8 kit from Dalian Meilun Biotech Co., Ltd. Assay details are as follows: tumor cells were seeded in a 96-well plate at a density listed in Table 5. After 24” for “After 24”

MM.1S = assay: CCK-8 tumor cell proliferation, MM.1S; type: cell-based; conditions: Table 7, designed based on BTK inhibitors; 72 h
Method: as §2
as §1, with “IC50 values of the compounds of the present disclosure (including the compounds in Tables 1 and 3, and compounds of examples) were measured using the Meilun Cell Counting Kit-8 kit from Dalian Meilun Biotech Co., Ltd. Assay details are as follows: tumor cells were seeded in a 96-well plate at a density listed in Table 5. After 24” for “After 24”

CAL-62 = assay: CCK-8 tumor cell proliferation, CAL-62; type: cell-based, Human; conditions: Homo sapiens; Table 18, FAK inhibitor based; CAL-62; read-out: IC50 inhibiting proliferation of tumor cells, CAL-62
Method: as §2
as §1, with “IC50 values of the compounds of the present disclosure (including the compounds in Tables 1 and 3, and compounds of examples) were measured using the Meilun Cell Counting Kit-8 kit from Dalian Meilun Biotech Co., Ltd. Assay details are as follows: tumor cells were seeded in a 96-well plate at a density listed in Table 5. After 24” for “After 24”

Structure (SMILES): Cc1cc(Nc2ncc(Cl)c(Nc3ccccc3S(=O)(=O)C(C)C)n2)c(OC(C)C)cc1N1CCC(N2CCN(Cc3ccc4c(c3)CN(C3CCC(=O)NC3=O)C4=O)CC2)CC1 (centres unmarked) [GT-03531, 3-(5-((4-(1-(4-((5-chloro-4-((2-(isopropylsulfonyl)phenyl)amino)pyrimidin-2-yl)amino)-5-isopropoxy-2-methylphenyl)piperidin-4-yl)piperazin-1-yl)methyl)-1-oxoisoindolin-2-yl)piperidine-2,6-dione]
- IC50 (PC-9; Table 15, ALK inhibitor based): 1000 to 5000 nM
- IC50 (SR; Table 15, ALK inhibitor based): < 50 nM
- IC50 (MDA-MB-231; Table 15, ALK inhibitor based): 100 to 500 nM

Structure (SMILES): CNC(=O)c1ccc(Nc2ncc(C(F)(F)F)c(NCc3nccnc3N(C)S(C)(=O)=O)n2)cc1 [Defactinib, reference compound]
- IC50 (PC-9; Table 18, FAK inhibitor based): 1000 to 5000 nM
- IC50 (SW620; Table 18, FAK inhibitor based, SW620, read-out: IC50 inhibiting proliferation of tumor cells, SW620): 1000 to 5000 nM
- IC50 (Mino; Homo sapiens, Table 18, FAK inhibitor based, Mino, read-out: IC50 inhibiting proliferation of tumor cells, Mino): 500 to 1000 nM

Structure (SMILES): CN(Cc1ccc2c(c1)CN(C1CCC(=O)NC1=O)C2=O)C1CCN(c2ccc(Nc3ncc4nc(Nc5ccccc5)n(C5CCCC5)c4n3)cc2)CC1 (centres unmarked) [GT-03685, 3-(5-(((1-(4-((9-cyclopentyl-8-(phenylamino)-9H-purin-2-yl)amino)phenyl)piperidin-4-yl)(methyl)amino)methyl)-1-oxoisoindolin-2-yl)piperidine-2,6-dione]
- IC50 for inhibiting the proliferation of tumor cells, PC-9 (PC-9): A+
- IC50 for inhibiting the proliferation of tumor cells, CCRF-CEM (CCRF-CEM; Table 11, designed based on EGFR inhibitors): A+

Structure (SMILES): Nc1ncnc2c1c(-c1ccc(Oc3ccccc3)cc1)nn2C1CCN(Cc2cc3c(cc2F)C(=O)N(C2CCC(=O)NC2=O)C3)CC1 (centres unmarked) [GT-03605, 3-(5-((4-(4-amino-3-(4-phenoxyphenyl)-1H-pyrazolo[3,4-d]pyrimidin-1-yl)piperidin-1-yl)methyl)-6-fluoro-1-oxoisoindolin-2-yl)piperidine-2,6-dione]
- IC50 for inhibiting the proliferation of tumor cells, MM.1S (MM.1S): A+
- IC50 for inhibiting the proliferation of tumor cells, CCRF-CEM (CCRF-CEM; Table 7, designed based on BTK inhibitors): A+
- IC50 for inhibiting the proliferation of tumor cells, MDA-MB-231 (MDA-MB-231; Table 7, designed based on BTK inhibitors, 96 h): A+

Structure (SMILES): Cc1nc(Nc2ncc(C(=O)Nc3c(C)cccc3Cl)s2)cc(N2CCC(N3CCN(Cc4ccc5c(c4)CN(C4CCC(=O)NC4=O)C5=O)CC3)CC2)n1 (centres unmarked) [GT-03476, N-(2-chloro-6-methylphenyl)-2-((6-(4-(4-((2-(2,6-dioxopiperidin-3-yl)-1-oxoisoindolin-5-yl)methyl)piperazin-1-yl)piperidin-1-yl)-2-methylpyrimidin-4-yl)amino)thiazole-5-carboxamide]
- IC50 for inhibiting the proliferation of tumor cells, Mino (Mino; Table 13, designed based on BCR-ABL inhibitors, 72 h): A+

The next lines start with the values.

- IC50 for inhibiting the proliferation of tumor cells, PC-9 (PC-9): A+
Structure (SMILES): O=C1CCC(N2Cc3cc(CN4CCN(c5ccc(Nc6ncc7nc(Nc8ccccc8)n(C8CCCC8)c7n6)cc5)CC4)c(F)cc3C2=O)C(=O)N1 (centres unmarked) [GT-03736, 3-(5-((4-(4-((9-cyclopentyl-8-(phenylamino)-9H-purin-2-yl)amino)phenyl)piperazin-1-yl)methyl)-6-fluoro-1-oxoisoindolin-2-yl)piperidine-2,6-dione]

- IC50 (CAL-62): 100 to 500 nM
- IC50 (SR; Table 18, FAK inhibitor based): 100 to 500 nM
- IC50 (MDA-MB-231; Table 18, FAK inhibitor based): 1000 to 5000 nM
Structure (SMILES): CNC(=O)c1ccccc1Nc1cc(Nc2ccc(N3CCN(Cc4cccc5c4CN(C4CCC(=O)NC4=O)C5=O)CC3)cc2OC)ncc1C(F)(F)F (centres unmarked) [GT-03718, 2-((2-((4-(4-((2-(2,6-dioxopiperidin-3-yl)-1-oxoisoindolin-4-yl)methyl)piperazin-1-yl)-2-methoxyphenyl)amino)-5-(trifluoromethyl)pyridin-4-yl)amino)-N-methylbenzamide]

- IC50 (SW620; Table 14, designed based on CDK4/6 inhibitors, 96 h, read-out: IC50 for inhibiting the proliferation of tumor cells, SW620): > 10000 nM
Structure (SMILES): CN(C)C(=O)c1cc2cnc(Nc3ccc(N4CCNCC4)cn3)nc2n1C1CCCC1 [Ribociclib, reference compound]
